Measurements published in patent publication US6906170B1 (Yeda Research and Development Co. Ltd., priority 1998, dated 2005).
No end group written: not given here.

Experiments:
human T cells [1] = experiment: T cell adhesion to FN induced by various activators; format: cell-based; settings: for inhibition of T cell adhesion to FN induced by various stimulators: peptide 10 pg/ml, IL-2, IL-7, MIP-1β, PMA, 8A2 mAb, anti-CD3 mAb
Method: FIGS. 7A-7B show inhibition by pep2 (FIG. 7A) and pep1 (FIG. 7B) of T cell adhesion to FN, induced by various activators. […] (1 μg/ml), or anti-human CD3 mAb (1 μg/ml). The IL-2-derived peptides, pep1 or pep2, were also present in some wells. After 30 min at 37° C., non-adherent T cells were removed by washing, the remaining adherent cells were lysed, and the percentage of T cells that had adhered was determined. One experiment representative of four.
(§1) T cell adhesion assays. Human T cells were purified from the peripheral blood of healthy donors, and T cell adhesion to immobilized protein substrates was examined as follows: Human leukocytes were isolated on a Ficoll gradient, washed, and incubated (2 h, 37° C., 7.5% CO2, humidified atmosphere) on petri dishes. The non-adherent cells were then collected and incubated (1 h, 37° C., 7.5% CO2, humidified atmosphere) on nylon wool columns (Novamed Ltd., Jerusalem, Israel). Unbound cells were eluted from the columns by extensive washings. The resulting cell population was always >92% T cells. […] After 4-6 h at 37° C., the wells were washed and ^51[Cr]-labeled T cells were added to the wells, 10^5 cells/100 μl of adhesion medium (RPMI-1640 supplemented with 0.1% BSA, 1% sodium pyruvate, 1% HEPES buffer). The microtiter plates containing the cells were incubated (30 min, 37° C.) in a humidified, 7.5% CO2 atmosphere, and then washed. The adherent cells were lysed, and the resulting supernatants were removed and analyzed in a γ-counter. For each experimental group, the results were expressed as the mean percentage ±SD of bound T cells from quadruplicate wells.
Inhibition by the Ile-Val-Leu and […](SEQ ID NO:1) peptides of T cell adhesion to FN induced by various pro-inflammatory mediators and by mAb specific for molecules expressed on T cells.

HT-29 cells = experiment: Spontaneous IL-8 secretion from intestinal epithelial cells (ELISA); format: cell-based, human; parameters: IL-8 secretion Average O.D.: scale not given here; settings: peptide 1 nM, 24 h at 37° C.; for IL-8 secretion Average O.D.: ELISA O.D. at 405 nm, medium alone 488 ± 8.5, background 71 ± 1.4; for IL-8 secretion % inhibition: spontaneous secretion
Method: Human colonic epithelial cell lines HT-29 (ATCC HTB38) and Caco-2 (ATCC […]) were obtained from the American Type Culture Collection (ATTC, Rockville, Md.). Cells were maintained in culture medium (DMEM supplemented with 10% cosmic calf serum (CSS), 2 mM glutamine, 100 U/ml penicillin, and 0.1 mg/ml streptomycin), at 37° C. and atmosphere of 5%, CO2. Cell viability was assessed using the standard MTT method.
Spontaneous or cytokine-induced secretion of IL-8 or IL-1β from intestinal epithelial cell. Test cells (HT-29 or Caco-2) were grown as confluent monolayers in 24-well tissue culture plates. […] When TNF-α was used, the peptides were added to the cells 1 hour prior to the addition of TNF-α. Following culture, the supernatants were harvested and analyzed for IL-8 or IL-1β secretion by ELISA using commercially available kits for IL-8 (Pharmingen) and IL-1β (Genzyme), according to the manufacturers' protocols.
The results in Table 1 show the O.D. readings of the ELISA assay (at 405 nm) as well as the percentage of inhibition of IL-8 secretion.

human T cells [2] = experiment: IL-2-induced T cell adhesion to LN, CO-IV and FN after peptide pre-treatment; format: cell-based; settings: pre-exposed to peptide 10 pg/ml, then IL-2 10 U/ml
Method: The T cells were then seeded onto microtiter wells that were pre-coated (1 μg/well) with the various ECM glycoproteins. T cell adhesion was measured 30 min later.
as §1
Ile-Val-Leu, Arg-Met-Leu-Thr (SEQ ID NO:2) and […](SEQ ID NO:1) inhibit T cell adhesion to LN, CO-IV and FN. The next experiment was designed and performed to verify that the three IL-2-derived peptides indeed affect T cell interactions with ECM glycoproteins other than FN. […] The treated cells were then added to microtiter wells coated with CO-IV, LN, and FN.

human T cells [3] = experiment: IL-2-induced T cell adhesion to fibronectin (FN); format: cell-based; settings: for concentration giving maximum inhibition of IL-2-induced T cell adhesion to FN / concentration giving maximum inhibition of IL-2-induced T cell adhesion to FN (molar) / inhibition of adhesion of IL-2-activated T cells to FN: IL-2 10 U/ml; for inhibition of adhesion of IL-2-activated T cells to FN: 30 min at 37° C., dose range; for anti-adhesive effect after removal of peptide prior to IL-2 activation: T cells pre-treated 1 pg/ml, washed, then IL-2 and FN-coated wells
Method: as §1
The effect of synthetic peptides, with putative amino acid compositions corresponding to fractions 2 and 8, on IL-2-induced T cell adhesion to FN. […] These three peptides were synthesized, and their effects on IL-2-induced T cell adhesion to FN were studied. […] The inhibitory dose-response curves of Ile-Val-Leu and […](SEQ ID NO:1) are similar to those of the HPLC fractions 2 and 8, respectively, from which they were derived. […]

human T cells [4] = experiment: Secretion of TNF-α and IFN-γ from proliferating T cells; format: cell-based; settings: peptide 1 to 100 pg/ml; not shown
human T cells [5] = experiment: T cell chemotaxis through FN-coated polycarbonate membranes; format: cell-based; settings: peptide 1 pg/ml, FN-coated membrane; for inhibition of T cell migration toward IL-2: IL-2 10 U/ml in lower compartment, p<0.01; for inhibition of T cell chemotaxis toward MIP-1β: MIP-1β in lower compartment
Method: T cell migration towards the chemotactic sources was assessed after 2 hr. One experiment representative of four.
Chemotaxis assays. T cell chemotaxis was performed and analyzed as previously described (Ben-Baruch et al., 1997). Briefly, the migration of human T cells (0.5×10^6 cells in adhesion medium/well) was examined in a 48-well chemotaxis micro-chamber (Neuro-Probe Inc., Cabin John, M D). The two compartments of the micro-chambers were separated by a FN-coated polycarbonate filter (5 μm pore size; Osmonics Protein Products, Livemore, Calif.). […] After incubation (120 min, 37° C., in a humidified, 7.5% CO2 atmosphere); the filters were removed, fixed, and stained with a Diff-Quik staining kit Dade, Düdingen, Switzerland). The number of migrating T cells in five high-power fields (under 500× magnification; WILD Microscope, Heerbrugg, Switzerland) was evaluated. For each group, the results are expressed as the mean number of cells in one high-power field.
Immune cell migration is the outcome of a subtle biological equilibrium existing between adhesion and detachment events. Lymphocyte adhesion to the subendothelial ECM and subsequent migration are two active processes that can overlap, but are not mutually dependent events. Adhesion and migration may depend on the ability of the T cells to continuously integrate different pro- and anti-adhesive signals via their versatile receptors for ECM, chemokines, cytokines, and possibly, also antigenic moieties.

human T cells [6] = experiment: PHA- or IL-2-mediated T cell proliferation; format: cell-based; settings: peptide 1 to 100 pg/ml
Method: The in vitro bioassays (a) to (e) are well-known in the art. Thus, for example, assays (a), (b) and (e) may be carried out as described in the section Materials and Methods hereinafter. […] The IL-2-derived peptides or their derivatives are added to the culture wells (different amounts, 10 microliters) for the entire period of the assay. [^3H]-Thymidine is added to the microtiter 96 U-form well plates 18 h before harvesting the cultures on day 3 onto glass fiber filters and counted by liquid scintillation counter. Mean CPM and SD from quadriplicate culture are then presented.

| Substance | inhibition of 8A2-induced T cell adhesion to FN (human T cells [1]; peptide 0.1 pg/ml) | inhibition of PMA-induced T cell adhesion to FN (human T cells [1]; peptide 0.1 pg/ml) | inhibition of T cell adhesion to FN induced by various stimulators (human T cells [1]) | IL-8 secretion Average O.D. (HT-29 cells) | IL-8 secretion % inhibition (HT-29 cells) | inhibition of T cell adhesion to CO-IV, LN and FN (human T cells [2]) | concentration giving maximum inhibition of IL-2-induced T cell adhesion to FN (human T cells [3]) | concentration giving maximum inhibition of IL-2-induced T cell adhesion to FN (molar) (human T cells [3]) | inhibition of adhesion of IL-2-activated T cells to FN (human T cells [3]) | anti-adhesive effect after removal of peptide prior to IL-2 activation (human T cells [3]) | inhibition of secretion of TNF-α and IFN-γ from proliferating T cells (human T cells [4]) | inhibition of T cell migration toward IL-2 (human T cells [5]) | inhibition of T cell chemotaxis toward MIP-1β (human T cells [5]) | interference with PHA- or IL-2-mediated proliferative responses (human T cells [6]) | inhibition of anti-CD3 mAb-induced T cell adhesion to FN (human T cells [1]; peptide 0.1 pg/ml) |
| --- | --- | --- | --- | --- | --- | --- | --- | --- | --- | --- | --- | --- | --- | --- | --- |
| Glu-Phe-Leu-Asn-Arg-Trp-Ile-Thr (EFLNRWIT; not fully specified (C-terminus); printed as Glu-Phe-Leu-Asn-Arg-Trp-Ile-Thr) [pep2] | did not inhibit | did not inhibit | inhibited T cell adhesion to FN | 36 ± 4.2 | 108% | inhibit T cell adhesion to the three major cell-adhesive glycoproteins of the ECM | 1 pg/mL | 0.92 pM | inhibited, in a dose-dependent manner | most of the anti-adhesive effects of the three peptides persevered | nor did these peptides inhibit the secretion of TNF-α and IFN-γ | ~60% | only a limited inhibitory effect | none of them, at 1 to 100 pg/ml, interfered with either PHA- or IL-2-mediated proliferative responses |  |
| Ile-Val-Leu [pep1] | did not inhibit | did not inhibit | inhibited T cell adhesion to FN | 54 ± 19.1 | 104% | inhibit T cell adhesion to the three major cell-adhesive glycoproteins of the ECM | 1 pg/mL | 2.91 pM | inhibited, in a dose-dependent manner | most of the anti-adhesive effects of the three peptides persevered | nor did these peptides inhibit the secretion of TNF-α and IFN-γ | about 30% | 80% | none of them, at 1 to 100 pg/ml, interfered with either PHA- or IL-2-mediated proliferative responses | did not inhibit |
